# BindingDB's records for doi:10.1021/ml400370w (The Scripps Research Institute, 2014)
# Assay: Antagonist activity against CCR5 receptor in human TZM-bl cells assessed as inhibition of HIV-1 JR-FL-induced cell-cell fusion between viral envelope protein expressing human HEK293 cells to TZM-bl cells after 48 hrs by luciferase reporter gene assay
row,Structure (SMILES),IC50 [nM]
1,Cc1nnc(CCCCCCCCCCN=[N+]=[N-])n1C1CC2CCC(C1)N2CC[C@H](NC(=O)C1CCC(F)(F)CC1)c1ccccc1 (stereo partly specified),0.96
2,Cc1nnc(C(C)C)n1C1CC2CCC(C1)N2CC[C@H](NC(=O)CCCCCCCCCCN=[N+]=[N-])c1ccccc1 (stereo partly specified),360
3,Cc1nnc(C(C)C)n1C1CC2CCC(C1)N2CC[C@H](NC(=O)CCCCCCCCCCn1cc(COCCOCCOCCOCCOCc2ccc(C(=O)N3CCC3=O)cc2)nn1)c1ccccc1 (stereo partly specified),27
4,Cc1nnc(C(C)C)n1C1CC2CCC(C1)N2CC[C@H](NC(=O)COCCOCCOCCN=[N+]=[N-])c1ccccc1 (stereo partly specified),> 1000

# Next, values leading:
row,IC50 [nM],Structure (SMILES)
1,2.6,Cc1nnc(CCCCCCCCCCn2cc(COCCOCCOCCOCCOCc3ccc(C(=O)N4CCC4=O)cc3)nn2)n1C1CC2CCC(C1)N2CC[C@H](NC(=O)C1CCC(F)(F)CC1)c1ccccc1 (stereo partly specified)
2,3,Cc1nnc(CCCCCCCCCCn2cc(COCCOCCOCCOCCOCc3ccc(C(=O)NCCCNC(=O)OC(C)(C)C)cc3)nn2)n1C1CC2CCC(C1)N2CC[C@H](NC(=O)C1CCC(F)(F)CC1)c1ccccc1 (stereo partly specified)
